Source: US8138184B2, “Isoxazole derivatives and pharmaceutical compositions comprising the same” (Kaohsiung Medical University, priority 2008, dated 2012)

Experiments:
[1] = Cell viability by MTT assay in hADSCs; assay type: cell-based, human; conditions: human, human adipose tissue derived stem cells (hADSCs), % of control
Procedure: (§1) Human adipose tissue derived stem cells (hADSCs), which is derived from adipose tissue, were selected an maintained in a keratinocyte SFM medium (Gibco BRL, Gaithersburg, Md.) supplemented with 5% FBS, 100 U/ml of penicillin and streptomycin.
(§2) New synthetic compounds were dissolved in DMSO to a final concentration of 10 mM and stored at −20° C. The concentration used was 10 μM and freshly diluted to the medium with a final concentration of DMSO at 0.1%. Control cultures were treated with the same amount of DMSO as used in the corresponding experiments.
The MTT assay is a calorimetric assay based on the ability of the viable cells to reduce a soluble yellow tetrazolium salt to blue formazan crystals (Carmichael, J. et. el. Cancer Research 1987, 47, 936). After compound treatments, 350 μL of MTT solution ([…] in PBS) were added to each well and incubated for 4 hrs. DMSO was then added for another 0.5 hrs to thoroughly dissolve the dark blue crystals. The absorbance at 570 nm was measured with an ELISA reader. Inhibition of mitochondrial metabolism was shown as relative activity (% of control).

[2] = test system: MCF-7 cells (human breast adenocarcinoma); assay: Cytotoxicity assay (MTS reduction), MCF-7; assay type: cell-based; conditions: for activity at 4 µg/mL / activity at 20 µg/mL: Homo sapiens, MCF7, 72 h, 3 days, % of DMSO control, read-out: Growth percentage MCF7 (Breast); for activity at 4 µg/mL / inhibition of growth of MCF7 (in words): 4 μg/mL; for activity at 20 µg/mL: 20 μg/mL
Procedure: (§3) MCF-7 cells (human breast adenocarcinoma), NCI-H460 cells (non-small-cell lung cancer) and SF-268cells (glioblastoma cells) were cultured in a Dulbecco's modified Eagle's medium supplemented with a 10% fetal calf serum and a nonessential amino acid (Life Technologies, Inc.) and maintained at 37° C. in a humidified incubator with 5% CO2.
(§4) Human cancer cells were seeded in 96-well microtiter plates at a density of 6500, 2500 and 7500 cells/well in 100 μl of culture medium for MCF-7, NCI-H460, and SF-268, respectively. […] Cells were treated with test compounds for 3 days. Cell viability was determined by the 5-[3-(carboxymethoxy)-phenyl]-2-(4,5-dimethylthiazolyl)-3-(4-sulfophenyl)tetrazolium salt (MTS) reduction assay. Actinomycin D (10 μM, final concentration) and DMSO (0.1%, final concentration) were used as positive and vehicle controls, respectively. Results were expressed as a % of the DMSO control.

[3] = test system: SF-268 cells (glioblastoma cells); assay: Cytotoxicity assay (MTS reduction), SF-268; assay type: cell-based, human; conditions: for activity at 4 µg/mL / activity at 20 µg/mL: Homo sapiens, SF-268, 72 h, 3 days, % of DMSO control, read-out: Growth percentage SF-268 (CNS); for activity at 4 µg/mL / inhibition of growth of SF-268 (in words): 4 μg/mL; for activity at 20 µg/mL: 20 μg/mL
Procedure: as §3, §4

[4] = test system: Human adipose tissue derived stem cells (hADSCs); assay: Cytotoxicity assay by lactate dehydrogenase (LDH) leakage in hADSCs; assay type: cell-based; conditions: 10 μM, % of total cell toxicity
Procedure: as §1, §2
Lactate dehydrogenase (LDH) leakage from cells was measured to quantify the cytotoxicity by using a cytotoxicity detection kit (Roche, Germany) (Crowston, J. G. et al Invest. Ophthalmol. Vis. Sci. 1998, 39, 449). Cells were previously seeded into 48-well plates (4×10^4 cells/well). After a drug treatment, the supernatants and cell layers of the cultures were collected for assay. According to the manufacturer's guidelines for the detection kit, cell layers were lysed with 1% TritonX-100, and cell lysates and supernatants were assayed in a 96-well plate, respectively. Briefly, 100 μL of catalyst solution was added in each assay well for 20 min. Absorbance was measured with an ELISA reader with a 490 nm filter. LDH leakage was shown as relative activity (% of total cell toxicity).

[5] = test system: NCI-H460 cells (non-small-cell lung cancer); assay: Cytotoxicity assay (MTS reduction), NCI-H460; assay type: cell-based, human; conditions: for activity at 4 µg/mL / activity at 20 µg/mL: Homo sapiens, NCI-H460, 72 h, 3 days, % of DMSO control, read-out: Growth percentage NCI-H460 (Lung); for activity at 4 µg/mL / inhibition of growth of NCI-H460 (in words): 4 μg/mL; for activity at 20 µg/mL: 20 μg/mL
Procedure: as §3, §4

[6] = test system: Human adipose tissue derived stem cells (hADSCs); assay: Osteogenic differentiation and quantification of mineralization (Alizarin red S) in hADSCs; assay type: cell-based; conditions: 10 μM
Procedure: as §1, §2
Osteogenic differentiation was induced by culturing cells in an osteo-induction medium (OIM, 10% FBS, 0.1 μM dexamethasone, 10 mM β-glycerophosphate, and L-Ascorbic 2 phosphate 100 μM in low glucose DMEM) for 7-14 days. The extracellular matrix calcification was estimated by using an Alizarin red S stain (Carl, A. et al Anal. Biochem. 2004, 329, 77). The Alizarin red S-stained mineral was quantified by the osteogenesis quantification kit (CHEMICON®).

Row | SMILES | viability at 3 days, 10 µM [1] | activity at 4 µg/mL [2] | activity at 20 µg/mL [2] | activity at 4 µg/mL [3] | activity at 20 µg/mL [3] | Cell cytotoxicity (3 days, LDH) [4] | activity at 4 µg/mL [5] | activity at 20 µg/mL [5] | inhibition of growth of MCF7 (in words) [2] | inhibition of growth of SF-268 (in words) [3] | inhibition of growth of NCI-H460 (in words) [5] | osteoblast activity (mineralization in hADSCs), in words [6]
1 | COc1ccc(-c2cnoc2-c2ccc(OC(C)C)cc2OCCCCCCN2CCOCC2)cc1 [5f, 4-{6-{5-Isopropoxy-2-[4-(4-methoxyphenyl)isoxazol-5-yl]phenoxy}hexyl}morpholine] | 53% | 44% | -1% | 38% | 1% | 17% | 17% | 0% | – | – | – | –
2 | COc1ccc(-c2cnoc2-c2ccc(OC(C)C)cc2O)cc1 [compound 3, 5-Isopropoxy-2-[4-(4-methoxyphenyl)isoxazol-5-yl]phenol] | 6% | – | – | – | – | 68% | – | – | – | – | – | –
3 | CC(C)Oc1ccc2c(=O)c(-c3ccccc3)coc2c1 [Ipriflavone, reference compound] | 77% | – | – | – | – | 0% | – | – | – | – | – | –
4 | COc1ccc(-c2cnoc2-c2ccc(OC(C)C)cc2OCCCCCCCN2CCNCC2)cc1 [5k] | 68% | 1% | 1% | 3% | 1% | 0% | 0% | 1% | – | – | – | –
5 | COc1ccc(-c2cnoc2-c2ccc(OC(C)C)cc2OCCCCCCCN2CCOCC2)cc1 [5j, 4-{7-{5-isopropoxy-2-[4-(4-methoxyphenyl)isoxazol-5-yl]phenoxy}heptyl}morpholine] | 54% | 25% | 1% | 32% | 2% | 12% | 10% | 0% | – | – | – | –
6 | COc1ccc(-c2cnoc2-c2ccc(OC(C)C)cc2OCCCCCCN2CCCCC2)cc1 [5h, 5-{4-isopropoxy-2-[6-(piperidin-1-yl)hexyloxy]phenyl}-4-(4-methoxyphenyl)isoxazole] | 57% | 13% | -3% | 4% | -1% | 0% | 2% | -1% | significantly inhibit the growth | significantly inhibit the growth | significantly inhibit the growth | –
7 | COc1ccc(-c2cnoc2-c2ccc(OC(C)C)cc2OCCCCN2CCNCC2)cc1 [5c, 5-{4-Isopropoxy-2-[4-(piperazin-1-yl)butoxy]phenyl}-4-(4-methoxyphenyl)isoxazole] | 86% | 7% | -1% | 68% | -2% | 33% | 29% | 0% | – | – | – | –
8 | COc1ccc(-c2cnoc2-c2ccc(OC(C)C)cc2OCCCCCCCN2CCCCC2)cc1 [5l, 5-{4-Isopropoxy-2-[7-(piperidin-1-yl)heptyloxy]phenyl}-4-(4-methoxyphenyl)isoxazole] | 58% | 29% | 1% | 25% | 2% | 0% | 8% | 1% | – | – | – | –
9 | COc1ccc(-c2cnoc2-c2ccc(OC(C)C)cc2OCCCCN2CCCC2)cc1 [5a, 5-{4-Isopropoxy-2-[4-(pyrrolidin-1-yl)butoxy]phenyl}-4-(4-methoxyphenyl)isoxazole] | 71% | 83% | 1% | 121% | 2% | 0% | 81% | 1% | – | – | – | more active than ipriflavone
10 | COc1ccc(-c2cnoc2-c2ccc(OC(C)C)cc2OCCCCCCN2CCNCC2)cc1 [5g, 5-{4-Isopropoxy-2-[6-(piperazin-1-yl)hexyloxy]phenyl}-4-(4-methoxyphenyl)isoxazole] | 60% | 14% | -3% | 20% | -1% | 0% | 0% | -1% | significantly inhibit the growth | significantly inhibit the growth | significantly inhibit the growth | –
11 | COc1ccc(-c2cnoc2-c2ccc(OCCCCCCN3CCNCC3)cc2O)cc1 [8a] | 64% | 7% | -1% | 68% | -2% | 0% | 29% | 0% | – | – | – | –
12 | COc1ccc(-c2cnoc2-c2ccc(OC(C)C)cc2OCCCCCCN2CCCC2)cc1 [5e, 5-{4-Isopropoxy-2-[6-(pyrrolidin-1-yl)hexyloxy]phenyl}-4-(4-methoxyphenyl)isoxazole] | 64% | 55% | 0% | 38% | 1% | 0% | 22% | 1% | – | – | – | more active than ipriflavone
13 | COc1ccc(-c2cnoc2-c2ccc(OC(C)C)cc2OCCCCN2CCOCC2)cc1 [5b, 4-{4-{5-Isopropoxy-2-[4-(4-methoxyphenyl)isoxazol-5-yl]phenoxy}butyl}morpholine] | 58% | 63% | 4% | 58% | 3% | 13% | 52% | 1% | – | – | – | –
14 | COc1ccc(-c2cnoc2-c2ccc(OC(C)C)cc2OCCCCCCCN2CCCC2)cc1 [5i, 5-{4-Isopropoxy-2-[7-(pyrrolidin-1-yl)heptyloxy]phenyl}-4-(4-methoxyphenyl)isoxazole] | 63% | 32% | 2% | 30% | 2% | 0% | 11% | 1% | – | – | – | –
15 | COc1ccc(-c2cnoc2-c2ccc(OC(C)C)cc2OCCCCN2CCCCC2)cc1 [5d, 5-{4-Isopropoxy-2-[4-(piperidin-1-yl)butoxy]phenyl}-4-(4-methoxyphenyl)isoxazole] | 78% | 90% | 1% | 119% | 2% | 0% | 68% | 1% | – | – | – | –
